Target: ATP-dependent translocase ABCB1 (Homo sapiens, UniProt P08183)
Experiment: TP_TRANSPORTER: transepithelial transport of BMS387032 at a concentration of 200uM in Caco-2 cells
Format: functional, cell-based
Conditions: caco-2, 200 µM

Chain of ATP-dependent translocase ABCB1 (P08183 whole entry): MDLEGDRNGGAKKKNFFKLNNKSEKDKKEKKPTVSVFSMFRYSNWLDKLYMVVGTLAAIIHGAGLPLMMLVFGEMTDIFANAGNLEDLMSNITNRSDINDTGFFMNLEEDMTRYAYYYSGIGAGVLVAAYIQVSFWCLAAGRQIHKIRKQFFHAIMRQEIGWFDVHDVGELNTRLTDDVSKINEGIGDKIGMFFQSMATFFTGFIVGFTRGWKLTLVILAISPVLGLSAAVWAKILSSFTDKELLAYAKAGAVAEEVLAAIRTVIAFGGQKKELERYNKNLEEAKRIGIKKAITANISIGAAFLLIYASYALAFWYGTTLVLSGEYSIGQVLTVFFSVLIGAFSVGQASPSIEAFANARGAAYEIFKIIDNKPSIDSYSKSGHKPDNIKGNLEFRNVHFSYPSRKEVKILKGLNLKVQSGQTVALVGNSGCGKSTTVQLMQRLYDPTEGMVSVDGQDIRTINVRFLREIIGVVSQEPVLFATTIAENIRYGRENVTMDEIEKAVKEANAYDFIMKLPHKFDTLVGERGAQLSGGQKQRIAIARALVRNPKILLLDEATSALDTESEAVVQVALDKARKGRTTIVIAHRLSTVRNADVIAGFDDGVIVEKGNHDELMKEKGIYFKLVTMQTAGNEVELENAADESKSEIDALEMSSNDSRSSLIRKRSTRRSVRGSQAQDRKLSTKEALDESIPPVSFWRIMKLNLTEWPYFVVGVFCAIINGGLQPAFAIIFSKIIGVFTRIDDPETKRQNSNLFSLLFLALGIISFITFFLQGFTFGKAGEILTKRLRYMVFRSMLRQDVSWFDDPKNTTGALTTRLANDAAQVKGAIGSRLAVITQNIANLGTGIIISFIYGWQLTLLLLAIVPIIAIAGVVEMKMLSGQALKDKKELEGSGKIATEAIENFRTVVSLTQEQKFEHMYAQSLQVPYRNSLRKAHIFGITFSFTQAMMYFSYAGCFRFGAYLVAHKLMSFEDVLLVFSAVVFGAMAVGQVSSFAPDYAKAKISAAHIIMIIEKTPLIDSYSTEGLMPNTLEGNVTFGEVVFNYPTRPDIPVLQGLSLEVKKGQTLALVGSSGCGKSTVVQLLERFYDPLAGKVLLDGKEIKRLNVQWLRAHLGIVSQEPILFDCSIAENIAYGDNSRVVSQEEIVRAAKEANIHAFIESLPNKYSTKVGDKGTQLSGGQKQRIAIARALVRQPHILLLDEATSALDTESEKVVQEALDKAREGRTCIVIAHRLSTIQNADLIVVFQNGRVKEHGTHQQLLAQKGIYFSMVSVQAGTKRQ

Activity: substrate [+]
Structure (SMILES): CC(C)(C)c1cnc(CSc2cnc(NC(=O)C3CCNCC3)s2)o1 [BMS-387032]

Reference: ChEMBL document CHEMBL2074409, “P-glycoprotein plays a role in the oral absorption of BMS-387032, a potent cyclin-dependent kinase 2 inhibitor, in rats” (Cancer Chemother Pharmacol, 2004)
